According to US7087648B1, “Methods for modulating macrophage proliferation using polyamine analogs” (The Regents of the University of California, priority 1997, dated 2006):
Like-named read-outs stand apart in the source and are kept apart here.

Assays:
[1] = test system: CD14^+ cells; test: In vitro dose response in NHL patient PBMC; total CD14^+ cell survival; assay type: cell-based, human; conditions: for EC50: Homo sapiens, PBMC, 120 h, read-out: ED50 (50% of cells killed); for EC50 / ED80 (80% of cells killed): 5 days of culture; for drug sensitivity in vitro: post in vivo DEHOP administration blood specimens
Procedure: To test whether patient macrophages would respond to administration of DEHOP in vitro, CD14 cells in a peripheral blood mononuclear cell preparation (PBMC) were exposed to different concentrations of DEHOP and the proportion of CD14 positive cells surviving at the end of 5 days of culture was assessed in drug treated cells as compared to controls. Specimens obtained pre chemotherapy were compared to specimens obtained 2 weeks post therapy. […] For patient four, the first specimen was obtained one day after the first cycle of DEHOP; the second specimen was obtained one week later. The effective dose 50 (where 50% of cells were killed), and effective dose 80 (where 80% of cells were killed) were calculated for each set of patient specimens exposed to DEHOP in vitro.

[2] = test system: AIDS related lymphoma; test: Clinical response to DEHOP in chemotherapy resistant AIDS related lymphoma patients; assay type: in vivo, human; conditions: for tumor relapse: after two cycles of DEHOP, no third cycle
Procedure: Four patients who had failed standard chemotherapy for treatment of their AIDS related lymphoma (therapy included at least CHOP chemotherapy up to six cycles). were evaluated for response to DEHOP administration in vivo. Patients had blood drawn pre administration of drug for evaluation of macrophage activation. This blood was also evaluated for response to DEHOP in vitro. […] Blood was obtained at 1 week after completion of the first and second cycles of therapy. The blood specimens were evaluated for macrophage proliferation (proliferating cell nuclear antigen, PCNA expression), and activation (percentage CD69 expression). Response to therapy was evaluated by direct observation of tumor (3 patients) and persistence or resolution of symptoms (1 patient with GI lymphoma).

[3] = test system: CD14^+/PCNA^+ peripheral blood macrophage; test: In vitro CD14/PCNA staining (FACSCAN) of PBMC from AIDS dementia patients cultured five days with agent; assay type: cell-based, human; conditions: for CD14^+/PCNA^+ / CD14^+/PCNA^− / total CD14: HIV dementia patient five; for CD14^+/PCNA^+: 0 drug: 74; for CD14^+/PCNA^−: 0 drug: 472; for total CD14: 0 drug: 546; for % Inhibition of CD14^+/PCNA antigen expression, mean: mean of HIV dementia patients
Procedure: We had previously separated peripheral blood monocytes on Ficoll. […] We then used Percoll gradient separation, which allows for denser cells to be captured. A two-step gradient was prepared in 15 mL conical tubes: bottom layer of 1.087 density Percoll, overlaid with 1.077 density. 1.5 mL whole heparinised blood was mixed with an equal volume of isotonic saline. This blood/saline was layered over the gradient and centrifuged. Cells from the 1.077 and 1.087 interfaces were collected, combined, and washed in 5 volumes of RPMI 1640. […] All further experiments were performed using 1.087 gradient.
Five×10^5 PBMC's isolated through a 1.087 g/cc Percoll/saline gradient were exposed to varied concentrations of agent after baseline CD14/PCNA staining was performed. The cells were cultured at 5×10^5 cells in RPM1-1640/10% fetal calf serum in a polypropylene tube (Falcon) at 37° C. for five days. After five days CD14/PCNA staining was performed on control and agent-treated cultures. FACSCAN analysis of PCNA-positive cells in control cultures was compared with agent-treated cultures and the percentage of control PCNA/CD14 cells was calculated. The results of such an experiment in which the effect of polyamine analog DEHOP (SunPharm; Florida) on proliferating macrophages (as detected by PCNA) from the blood of four patients with AIDS dementia are shown in FIG. 1A (with underlying data provided in Table 3). […] A comparison of the inhibitory effect of DEHOP and cyclosphosphamide, another anti-proliferative agent, was performed in vitro using the blood of one of these patients (“CB”).

[4] = test system: human brain tumor cell lines; conditions: cited from earlier work
[5] = test system: brain cell aggregates; test: In vitro cell killing of brain cell aggregates by macrophage supernatants treated or not with DEHOP; assay type: cell-based, human; conditions: FIG. 2
Procedure: To collect a maximum number of monocytes (both heavy and light), we used a one-step Percoll protocol. 1.5 mL whole heparinised blood was mixed with an equal volume of isotonic phosphate-buffered solution and layered over 5 mL Percoll at 1.087. The cells were centrifuged, washed, and resuspended in RPMI 1640 supplemented with 10% fetal calf serum at […]. To separate non-adherent lymphocytes from adherent monocytes, culture dishes were washed with RPMI after overnight incubation. The adherent cells were re-fed with RPMI and cultured for 7 days to obtain supernatants. Supernatants were clarified by centrifugation at 90,000 g over 25% sucrose overnight. The supernatant was filtered through a 0.22 μm syringe filter and stored at −70° C.
Human fetal brain tissue from between 16 and 18 weeks' gestation was obtained from elective abortions for preparation of brain cell aggregates. These aggregates contain all the cells of the central nervous system including neurons, astrocytes, oligodendrocytes with accompanying myelin, and microglial cells. After 10 days in culture, and before experimentation, aggregates were tested for viability by trypan-blue exclusion. […]
Lactate dehydrogenase is released on cell lysis. […] The brain aggregate supernatant was reacted with yellow tetrazolium salt and absorbance was read at 490 nm. […]

## CCNCCCCNCCCCNCCCCNCC [DEHOP, 1,14-bis(ethylamino)-5,10-diazatetradecane]
[1]; patient one, Pre specimen
  EC50: 10 µM
  ED80 (80% of cells killed): >10 µM
[1]; patient three, Post specimen
  EC50: 0.1 µM
  ED80 (80% of cells killed): 0.8 µM
[1]; patient three, Pre specimen
  EC50: 10 µM
  ED80 (80% of cells killed): >10 µM
[1]; patient two, Post specimen
  EC50: > 10 µM
  ED80 (80% of cells killed): >10 µM
[1]; patient two, Pre specimen
  EC50: 1 µM
  ED80 (80% of cells killed): >10 µM
[1]; patient four, Post specimen
  ED80 (80% of cells killed): 0.1 µM
[1]; patient four, Pre specimen
  ED80 (80% of cells killed): 1.0 µM
[1]; patient two
  drug sensitivity in vitro: persistently resistant to drug
[1]; patients
  drug sensitivity in vitro: marked drug sensitivity
[2]; patient four, DEHOP sq for 5 days, 25 or 50 mg/m^2
  Response to Therapy: objective measured tumor response after first week of Rx: >50% objective measured tumor
[2]; patient four
  tumor relapse: 47 days
[2]; patient one, DEHOP sq for 5 days, 25 or 50 mg/m^2
  Response to Therapy: None
[2]; patient three, DEHOP sq for 5 days, 25 or 50 mg/m^2
  Response to Therapy: Clinical Response
[2]; patient three
  tumor relapse: 54 days
[2]; patient two, DEHOP sq for 5 days, 25 or 50 mg/m^2
  Response to Therapy: None
[2]; patients, day 35 after initiation of study
  clinical response: objective and subjective responses
[3]; FIG. 6, averages of several (N) experiments
  PCNA^+/CD14 cell survival: decrease
[3]; HIV dementia patient 1, DEHOP 2 um
  % Inhibition of CD14^+/PCNA antigen expression: 79%
[3]; HIV dementia patient 1, DEHOP 10 um
  % Inhibition of CD14^+/PCNA antigen expression: 95%
[3]; HIV dementia patient 1, DEHOP 50 um
  % Inhibition of CD14^+/PCNA antigen expression: 84%
[3]; HIV dementia patient 2, DEHOP 0.4 um
  % Inhibition of CD14^+/PCNA antigen expression: 94%
[3]; HIV dementia patient 2, DEHOP 2 um
  % Inhibition of CD14^+/PCNA antigen expression: 94%
[3]; HIV dementia patient 2, DEHOP 10 um
  % Inhibition of CD14^+/PCNA antigen expression: 97%
[3]; HIV dementia patient 3, DEHOP 0.4 um
  % Inhibition of CD14^+/PCNA antigen expression: 66%
[3]; HIV dementia patient 3, DEHOP 2 um
  % Inhibition of CD14^+/PCNA antigen expression: 62%
[3]; HIV dementia patient 3, DEHOP 10 um
  % Inhibition of CD14^+/PCNA antigen expression: 58%
[3]; HIV dementia patient 4, DEHOP 0.08 um
  % Inhibition of CD14^+/PCNA antigen expression: 19%
[3]; HIV dementia patient 4, DEHOP 0.4 um
  % Inhibition of CD14^+/PCNA antigen expression: 25%
[3]; HIV dementia patient 4, DEHOP 2 um
  % Inhibition of CD14^+/PCNA antigen expression: 75%
[3]; 0.4 (um)
  CD14^+/PCNA^+: 25 #cells/10,000 PBMC
  CD14^+/PCNA^−: 222 #cells/10,000 PBMC
  total CD14: 247 #cells/10,000 PBMC
[3]; 2 (um)
  CD14^+/PCNA^+: 28 #cells/10,000 PBMC
  CD14^+/PCNA^−: 182 #cells/10,000 PBMC
  total CD14: 210 #cells/10,000 PBMC
[3]; 10 um
  CD14^+/PCNA^+: 31 #cells/10,000 PBMC
  CD14^+/PCNA^−: 89 #cells/10,000 PBMC
  total CD14: 120 #cells/10,000 PBMC
[3]; blood of four patients with AIDS dementia, FIG. 1A
  percentage of proliferating macrophages (as detected by PCNA): significantly reduced the percentage of proliferating macrophages
[3]; blood of patient five, Table 1
  inhibitory effect compared with cyclosphosphamide: superior in inhibition
[3]; DEHOP 0.08 um
  % Inhibition of CD14^+/PCNA antigen expression, mean: 19%
[3]; DEHOP 0.4 um
  % Inhibition of CD14^+/PCNA antigen expression, mean: 62%
[3]; DEHOP 2 um
  % Inhibition of CD14^+/PCNA antigen expression, mean: 78%
[3]; DEHOP 10 um
  % Inhibition of CD14^+/PCNA antigen expression, mean: 83%
[3]; DEHOP 50 um
  % Inhibition of CD14^+/PCNA antigen expression, mean: 84%
[3]; summary of the data shown
  inhibition and/or killing of blood PCNA^+/CD14^+ cells: potent inhibition and/or killing
[4]
  growth, survival, and cell cycle progression: directly affects growth, survival, and cell cycle progression
[5]; non-dementia disease control (AIDS lymphoma), with or without DEHOP treatment
  cell killing by macrophage supernatants: did not show significant cell killing
[5]; peripheral blood of an AIDS dementia patient, preparations treated with DEHOP
  cell killing by macrophage supernatants: virtually disappeared
